In ChEMBL document CHEMBL1212732, “Conformational inhibition of the hepatitis C virus internal ribosome entry site RNA” (Nat Chem Biol, 2009):
The source made the active and inactive calls. The rule behind the calls is not given here.

How the values were obtained:
[1] = target: Internal ribosome entry site (IRES); experiment: Binding affinity to HCV 2AP54-labelled IRES subdomain 2a RNA in presence of 1 mM Mg2+ by FRET assay; type: nucleic-acid assay, Hepacivirus hominis
[2] = target: Internal ribosome entry site (IRES); experiment: Binding affinity to HCV 2AP54-labelled IRES subdomain 2a RNA A57U mutant in presence of 1 mM Mg2+ by FRET assay; type: nucleic-acid assay, Hepacivirus hominis
[3] = target: Internal ribosome entry site (IRES); experiment: Binding affinity to HCV 2AP54-labelled IRES subdomain 2a RNA by mass spectrometry; type: nucleic-acid assay, Hepacivirus hominis
[4] = tested on: Internal ribosome entry site (IRES); experiment: Binding affinity to HCV Cy3/Cy5-labelled IRES subdomain 2a RNA by FRET assay; type: nucleic-acid assay; settings: Hepacivirus hominis
[5] = target: Internal ribosome entry site (IRES); experiment: Binding affinity to HCV 2AP54-labelled IRES subdomain 2a RNA A54G mutant in presence of 1 mM Mg2+ by FRET assay; type: nucleic-acid assay, Hepacivirus hominis
[6] = Cytotoxicity against human HuH7 cells at 0.25-25 uM after 48 hrs by colorimetric viability assay; type: cell-based; settings: huh-7, 48 h
[7] = tested on: Hepacivirus hominis; experiment: Inhibition of HCV NS5B RNA dependent RNA polymerase after 60 mins
[8] = target: Internal ribosome entry site (IRES); experiment: Binding affinity to HCV 2AP54-labelled IRES subdomain 2a RNA C55U mutant in presence of 1 mM Mg2+ by FRET assay; type: nucleic-acid assay, Hepacivirus hominis
[9] = tested on: Hepatitis C virus; experiment: Inhibition of HCV 1b replicon translation in human HuH7 cells transfected with BM4-5 FEO HCV replicon RNA after 8 hrs by luciferase reporter assay; type: functional, organism-based, Hepacivirus hominis; settings: genotype 1b, Huh-7, 8 h
[10] = tested on: Hepatitis C virus; experiment: Inhibition of HCV 1b replicon translation in human HuH7 cells transfected with BM4-5 FEO HCV replicon RNA A57U mutant by luciferase reporter assay relaitv to wild type; type: functional, Hepacivirus hominis, genotype 1b, Huh-7
[11] = tested on: Hepacivirus hominis; experiment: Inhibition of HCV NS5B RNA dependent RNA polymerase after 24 mins
[12] = tested on: Internal ribosome entry site (IRES); experiment: Binding affinity to HCV 2AP54-labelled IRES subdomain 2a RNA in presence of Mg2+ by FRET assay in presence of eukaryotic tRNA; type: nucleic-acid assay; settings: Hepacivirus hominis
[13] = target: Internal ribosome entry site (IRES); experiment: Binding affinity to HCV 2AP54-labelled IRES subdomain 2a RNA U56G/A57U mutant in presence of 1 mM Mg2+ by FRET assay; type: nucleic-acid assay, Hepacivirus hominis
[14] = tested on: Hepatitis C virus; experiment: Inhibition of HCV 1b replicon translation in human HuH7 cells transfected with BM4-5 FEO HCV replicon RNA after 4 hrs by luciferase reporter assay; type: functional, organism-based, Hepacivirus hominis; settings: genotype 1b, Huh-7, 4 h
[15] = target: Internal ribosome entry site (IRES); experiment: Binding affinity to HCV 2AP54-labelled IRES subdomain 2a RNA C55A mutant in presence of 1 mM Mg2+ by FRET assay; type: nucleic-acid assay, Hepacivirus hominis
[16] = target: Internal ribosome entry site (IRES); experiment: Binding affinity to HCV 2AP54-labelled IRES subdomain 2a RNA in presence of 0.3 mM Mg2+ by FRET assay; type: nucleic-acid assay, Hepacivirus hominis
[17] = tested on: Internal ribosome entry site (IRES); experiment: Binding affinity to HCV 2AP54-labelled IRES subdomain 2a RNA in presence of Mg2+ by FRET assay; type: nucleic-acid assay; settings: Hepacivirus hominis
[18] = target: Internal ribosome entry site (IRES); experiment: Binding affinity to HCV 2AP54-labelled IRES subdomain 2a RNA C58A mutant in presence of 1 mM Mg2+ by FRET assay; type: nucleic-acid assay, Hepacivirus hominis
[19] = tested on: Hepatitis C virus; experiment: Inhibition of HCV 1b replicon translation in human HuH7 cells transfected with BM4-5 FEO HCV replicon RNA after 48 hrs by luciferase reporter assay; type: functional, organism-based, Hepacivirus hominis; settings: genotype 1b, Huh-7, 48 h

| Compound | EC50 [1] | EC50 [2] | Kd [3] | Activity [4] | EC50 [5] | Activity [6] | inhibition [7] | EC50 [8] | IC50 [9] | inhibition (INH) [10] | inhibition [11] | Activity [12] | EC50 [13] | IC50 [14] | EC50 [15] | EC50 [16] | Activity [17] | EC50 [18] | IC50 [19] |
| --- | --- | --- | --- | --- | --- | --- | --- | --- | --- | --- | --- | --- | --- | --- | --- | --- | --- | --- | --- |
| CN(C)CC(CO)Cn1c(N)nc2ccc3c(c21)CC(CO)CO3 (stereo not given) | 90 µM | – | – | – | – | – | – | – | – | – | – | – | – | – | – | – | – | – | – |
| CN(C)CC1COc2ccc3nc4n(c3c2C1)CC(CN(C)C)CN4 (stereo not given) | 0.6 µM | 4.2 µM | 720 nM | inactive | 490 nM | Toxic | Active | 320 nM | 9.5 µM | 15% | Active | Active | 4.1 µM | 4 µM | 650 nM | 260 nM | Dose-dependent effect | 760 nM | 2000 nM |
